From patent US20230295114A1, “AKT3 MODULATORS” (Georgiamune LLC, priority 2020, published 2023)

Biological target: T1, Akt3 (Homo sapiens, UniProt Q9Y243)
T1 construct: endogenous in cells
Assay: Akt3 activation activity of selected compounds
Format: cell-based

T1 sequence (Q9Y243 whole entry): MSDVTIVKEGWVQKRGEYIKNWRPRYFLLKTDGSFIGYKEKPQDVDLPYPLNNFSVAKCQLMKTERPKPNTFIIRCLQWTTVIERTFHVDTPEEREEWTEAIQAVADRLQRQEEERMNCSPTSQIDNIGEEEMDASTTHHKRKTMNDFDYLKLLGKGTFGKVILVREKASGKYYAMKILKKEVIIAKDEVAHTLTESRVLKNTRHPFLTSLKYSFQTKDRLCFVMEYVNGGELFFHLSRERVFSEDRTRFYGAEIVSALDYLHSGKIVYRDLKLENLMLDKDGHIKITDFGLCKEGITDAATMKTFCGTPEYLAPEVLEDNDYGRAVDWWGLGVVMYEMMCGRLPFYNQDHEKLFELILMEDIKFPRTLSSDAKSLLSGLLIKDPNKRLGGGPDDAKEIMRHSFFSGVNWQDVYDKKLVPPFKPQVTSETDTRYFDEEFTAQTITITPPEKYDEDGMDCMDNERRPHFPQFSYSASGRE

Row | Compound | EC50 [nM]
1 | Cc1cc(Nc2ccc3[nH]c(-c4ccc(Nc5ccnc6ccc(N7CCOCC7)cc56)nc4)nc3c2)ccn1 [Compound 71, N-(5-(5-((2-methylpyridin-4-yl)amino)-1H-benzo[d]imidazol-2-yl)pyridin-2-yl)-6-morpholinoquinolin-4-amine] | < 50
2 | Cc1cc(Nc2ccc3[nH]c(-c4ccc(Nc5ccnc6ccc(N(C)C)cc56)cc4)nc3c2)ccn1 [Compound 37, N^6,N^6-dimethyl-N^4-(4-(5-((2-methylpyridin-4-yl)amino)-1H-benzo [d]imidazol-2-yl)phenyl)quinoline-4,6-diamine] | < 5000
3 | Cc1cc(Nc2ccc3[nH]c(-c4ccc(Nc5cc(C)nc6ccc(N7CC(C)OC(C)C7)cc56)cc4)nc3c2)ccn1 (stereo not drawn) [Compound 76, 6-(2,6-dimethylmorpholino)-2-methyl-N-(4-(5-(2-methylpyridin-4-ylamino)-1H-benzo[d]imidazol-2-yl)phenyl)quinolin-4-amine] | < 50
4 | Cc1cc(Nc2ccc3[nH]c(-c4ccc(Nc5ccnc6ccc(N7CCOCC7)cc56)cn4)nc3c2)ccn1 [Compound 69, N-(6-(5-((2-methylpyridin-4-yl)amino)-1H-benzo[d]imidazol-2-yl)pyridin-3-yl)-6-morpholinoquinolin-4-amine] | < 20
5 | Cc1cc(Nc2ccc3[nH]c(-c4ccc(Nc5cc(C)nc6ccc(N7CCOCC7)cc56)nc4)nc3c2)ccn1 [Compound 73, 2-methyl-N-(5-(5-(2-methylpyridin-4-ylamino)-1H-benzo[d]imidazol-2-yl)pyridin-2-yl)-6-morpholinoquinolin-4-amine] | < 50
6 | Cc1cc(Nc2ccc3[nH]c(-c4ccc(Nc5cc(C)nc6ccc(N7CC(C)OC(C)C7)cc56)cn4)nc3c2)ccn1 (stereo not drawn) [Compound 77, 6-(2,6-dimethylmorpholino)-2-methyl-N-(6-(5-(2-methylpyridin-4-ylamino)-1H-benzo[d]imidazol-2-yl)pyridin-3-yl)quinolin-4-amine] | < 50
7 | Cc1cc(Nc2ccc3[nH]c(-c4ccc(Nc5cc(C)nc6ccc(N7CCOCC7)cc56)cn4)nc3n2)ccn1 [Compound 70, 2-methyl-N-(6-(5-(2-methylpyridin-4-ylamino)-1H-imidazo [4,5-b]pyridin-2-yl)pyridin-3-yl)-6-morpholinoquinolin-4-amine] | < 2000
8 | Cc1cc(Nc2ccc3[nH]c(-c4ccc(Nc5cc(C)nc6ccc(N7CCOCC7)cc56)cn4)nc3c2)ccn1 [Compound 74, 2-methyl-N-(6-(5-(2-methylpyridin-4-ylamino)-1H-benzo[d]imidazol-2-yl)pyridin-3-yl)-6-morpholinoquinolin-4-amine] | < 50
9 | Cc1cc(Nc2ccc3[nH]c(-c4ccc(Nc5ccnc6ccc(N7CC(C)OC(C)C7)cc56)cc4)nc3c2)ccn1 (stereo not drawn) [Compound 75, 6-(2,6-dimethylmorpholino)-N-(4-(5-((2-methylpyridin-4-yl)amino)-1H-benzo[d]imidazol-2-yl)phenyl)quinolin-4-amine] | < 20

Biological target: T1, Akt3
Assay: Akt3 inhibition activity of selected compounds
Format: cell-based

Row | Compound | IC50 [nM]
10 | O=C(Nc1cccc(Nc2ccncc2)c1)c1ccc(Nc2ccncc2)cc1 [Compound 10, 4-(pyridin-4-ylamino)-N-(3-(pyridin-4-ylamino)phenyl)benzamide] | < 1000
11 | O=C(Nc1cccc(Nc2ccncc2)c1)c1ccc(Nc2ccnc3ccc(F)cc23)cc1 [Compound 2, 4-((6-fluoroquinolin-4-yl)amino)-N-(3-(pyridin-4-ylamino)phenyl)benzamide] | < 1000
12 | O=C(Nc1cccc(Nc2ccncc2)c1)c1ccc(Nc2ccnc3ccccc23)cc1 [Compound 5, N-(3-(pyridin-4-ylamino)phenyl)-4-(quinolin-4-ylamino)benzamide] | < 2000

Continued, values first:

Row | IC50 [nM] | Compound
13 | < 5000 | O=C(Nc1cc(Nc2ccncc2)ccn1)c1ccc(Nc2ccncc2)cc1 [Compound 24, 4-(pyridin-4-ylamino)-N-(4-(pyridin-4-ylamino)pyridin-2-yl)benzamide]
14 | < 500 | Cc1cnc2ccccc2c1Nc1ccc(C(=O)Nc2cccc(Nc3ccncc3)c2)cc1 [Compound 14, 4-((3-methylquinolin-4-yl)amino)-N-(3-(pyridin-4-ylamino)phenyl)benzamide]
15 | < 1000 | O=C(Nc1cccc(Nc2ccnc(F)c2)c1)c1ccc(Nc2ccncc2)cc1 [Compound 31, N-(3-(2-fluoropyridin-4-ylamino)phenyl)-4-(pyridin-4-ylamino)benzamide]
16 | < 2000 | Nc1cc(Nc2cccc(NC(=O)c3ccc(Nc4ccncc4)cc3)c2)ccn1 [Compound 93, N-(3-(2-aminopyridin-4-ylamino)phenyl)-4-(pyridin-4-ylamino)benzamide]
17 | < 5000 | Cc1ccc2c(Nc3ccc(C(=O)Nc4cccc(Oc5ccncc5)c4)cc3)ccnc2c1 [Compound 17, 4-((7-methylquinolin-4-yl)amino)-N-(3-(pyridin-4-yloxy)phenyl)benzamide]
18 | < 2000 | Cc1cc(Nc2cccc(NC(=O)c3ccc(Nc4ccncc4)cc3)c2)ccn1 [Compound 22, N-(3-((2-methylpyridin-4-yl)amino)phenyl)-4-(pyridin-4-ylamino)benzamide]
19 | < 2000 | Cc1cc(Nc2ccc(C(=O)Nc3cccc(Nc4ccnc(C)c4)c3)cc2)ccn1 [Compound 23, 4-((2-methylpyridin-4-yl)amino)-N-(3-((2-methylpyridin-4-yl)amino)phenyl)benzamide]
20 | < 5000 | Cc1cnc2ccccc2c1Nc1ccc(C(=O)Nc2cccc(Oc3ccncc3)c2)cc1 [Compound 13, 4-((3-methylquinolin-4-yl)amino)-N-(3-(pyridin-4-yloxy)phenyl)benzamide]
21 | < 5000 | Cc1c(Nc2cccc(NC(=O)c3ccc(Nc4ccncc4)cc3)c2)ccnc1N [Compound 92, N-(3-(2-amino-3-methylpyridin-4-ylamino)phenyl)-4-(pyridin-4-ylamino)benzamide]
22 | < 2000 | Cc1cc(Nc2ccc(C(=O)Nc3cccc(Oc4ccncc4)c3)cc2)c2ccccc2n1 [Compound 15, 4-((2-methylquinolin-4-yl)amino)-N-(3-(pyridin-4-yloxy)phenyl)benzamide]
23 | < 2000 | Cc1cc(Nc2cccc(NC(=O)c3ccc(Nc4ccncc4)cc3)c2)cc(N)n1 [Compound 94, N-(3-(2-amino-6-methylpyridin-4-ylamino)phenyl)-4-(pyridin-4-ylamino)benzamide]
24 | < 5000 | N#Cc1cc(Nc2cccc(NC(=O)c3ccc(Nc4ccncc4)cc3)c2)ccn1 [Compound 30, N-(3-(2-cyanopyridin-4-ylamino)phenyl)-4-(pyridin-4-ylamino)benzamide]
